Patent US6825230B2, “Spiro and dispiro 1,2,4-trixolane antimalarials” (Medicines for Malaria Venture MMV, priority 2002, dated 2004)
≈ marks a conversion by molar mass, not a printed value.

Experiments:
[1] = tested on: chloroquine-resistant K1 strain of P. falciparum; assay: In vitro antimalarial semiautomated microdilution assay ([3H]-hypoxanthine incorporation), K1 strain; format: cell-based, Plasmodium falciparum; settings: for IC50: Plasmodium falciparum, K1, 72 h, read-out: IC50 (ng/ml) K1, chloroquine-resistant K1 strain, 72 h incubation
Summary of the method: (§1)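 Logit regression analysis yields the fifty percent inhibitory concentration. Compounds are tested by semiautomated microdilution on intraerythrocytic parasites drawn from asynchronous stock cultures, measuring [3H]-hypoxanthine incorporation.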

[2] = tested on: chloroquine-sensitive NF54 strain of P. falciparum; assay: In vitro antimalarial semiautomated microdilution assay ([3H]-hypoxanthine incorporation), NF54 strain; format: cell-based, Plasmodium falciparum; settings: for IC50: Plasmodium falciparum, NF54, 72 h, read-out: IC50 (ng/ml) NF54, chloroquine-sensitive NF54 strain, 72 h incubation
Summary of the method: as §1

[3] = tested on: ANKA strain of P. berghei; assay: Single dose STI in vivo screen in infected mice; design: species or system Plasmodium berghei; settings: for Survival (days) 10 mg/kg po: single 10 mg/kg po in 3% ethanol and 7% Tween 80; for Survival (days) 10 mg/kg po / Survival (days) 10 mg/kg SSV po / Survival (days) 10 mg/kg sc: untreated 6-7 days; for Activity (%) 10 mg/kg po: single 10 mg/kg po in 3% ethanol and 7% Tween 80 on day 1 post-infection; for Activity (%) 10 mg/kg po / Activity (%) 10 mg/kg SSV po / Activity (%) 10 mg/kg sc: percent reduction in parasitemia on day 3; for Survival (days) 10 mg/kg SSV po: single 10 mg/kg po in SSV; for Activity (%) 10 mg/kg SSV po: single 10 mg/kg po in standard suspending vehicle (SSV) on day 1 post-infection; for Survival (days) 10 mg/kg sc: single 10 mg/kg sc in 3% ethanol and 7% Tween 80; for Activity (%) 10 mg/kg sc: single 10 mg/kg sc in 3% ethanol and 7% Tween 80 on day 1 post-infection

For `O=C1c2ccccc2C(=O)N1C[C@H]1CC[C@@]2(CC1)OOC1(O2)C2CC3CC(C2)CC1C3` (stereo partly drawn) [OZ167], the IC50 [1] was 6.7 ng/mL (≈ 0.0158 µM), the IC50 [2] was greater than 10 ng/mL and the “Survival (days) 10 mg/kg po” value [3] was 6.0 days. For the same compound, the “Activity (%) 10 mg/kg po” value [3] was 0%, the “Survival (days) 10 mg/kg SSV po” value [3] was 6.0 days and the “Activity (%) 10 mg/kg SSV po” value [3] was 6%. For the same compound, the “Survival (days) 10 mg/kg sc” value [3] was 7.3 days and the “Activity (%) 10 mg/kg sc” value [3] was 97%.
In the case of `CC1(C)CC(NC2CCC3(CC2)OOC2(O3)C3CC4CC(C3)CC2C4)CC(C)(C)N1` (stereo not drawn) [OZ171], the IC50 [1] is reported as 1.3 ng/mL (≈ 0.00311 µM), the IC50 [2] is reported as 1.4 ng/mL (≈ 0.00334 µM) and the “Survival (days) 10 mg/kg po” value [3] is reported as 9.0 days. For the same compound, the “Activity (%) 10 mg/kg po” value [3] was 98%, the “Survival (days) 10 mg/kg SSV po” value [3] was 7.0 days and the “Activity (%) 10 mg/kg SSV po” value [3] was 85%. For the same compound, the “Survival (days) 10 mg/kg sc” value [3] was 9.7 days and the “Activity (%) 10 mg/kg sc” value [3] was 99.94%.
In the case of `N=C(N)NN=C1CCC2(CC1)OOC1(O2)C2CC3CC(C2)CC1C3` (stereo not drawn) [OZ172], the IC50 [1] is reported as 3.5 ng/mL (≈ 0.0105 µM), the IC50 [2] is reported as 5 ng/mL (≈ 0.015 µM) and the “Survival (days) 10 mg/kg po” value [3] is reported as 8.0 days. The “Activity (%) 10 mg/kg po” value [3] was 68%, the “Survival (days) 10 mg/kg SSV po” value [3] was 10.3 days and the “Activity (%) 10 mg/kg SSV po” value [3] was 82%. The “Survival (days) 10 mg/kg sc” value [3] was 10.3 days and the “Activity (%) 10 mg/kg sc” value [3] was 100%.
With `COCC(=O)N(Cc1ccccc1)C1CCC2(CC1)OOC1(O2)C2CC3CC(C2)CC1C3` (stereo not drawn) [OZ173] the IC50 [1] was 58 ng/mL (≈ 0.131 µM), the IC50 [2] was 32 ng/mL (≈ 0.0725 µM) and the “Survival (days) 10 mg/kg po” value [3] was 7.0 days. For the same compound, the “Activity (%) 10 mg/kg po” value [3] was 15%, the “Survival (days) 10 mg/kg SSV po” value [3] was 6.7 days and the “Activity (%) 10 mg/kg SSV po” value [3] was 0%. For the same compound, the “Survival (days) 10 mg/kg sc” value [3] was 9.7 days and the “Activity (%) 10 mg/kg sc” value [3] was 80%.
For `COCC(=O)N(C1CCCCC1)C1CCC2(CC1)OOC1(O2)C2CC3CC(C2)CC1C3` (stereo not drawn) [OZ174], the IC50 [1] was 27 ng/mL (≈ 0.0623 µM), the IC50 [2] was 34 ng/mL (≈ 0.0784 µM) and the “Survival (days) 10 mg/kg po” value [3] was 6.7 days. For the same compound, the “Activity (%) 10 mg/kg po” value [3] was 0%, the “Survival (days) 10 mg/kg SSV po” value [3] was 7.3 days and the “Activity (%) 10 mg/kg SSV po” value [3] was 15%. For the same compound, the “Survival (days) 10 mg/kg sc” value [3] was 10.3 days and the “Activity (%) 10 mg/kg sc” value [3] was 90%.
In the case of `O=C(O)c1ccc(OC[C@H]2CC[C@]3(CC2)OOC2(O3)C3CC4CC(C3)CC2C4)cc1` (stereo partly drawn) [OZ176], the IC50 [1] is reported as 25 ng/mL (≈ 0.0603 µM), the IC50 [2] is reported as 35 ng/mL (≈ 0.0844 µM) and the “Survival (days) 10 mg/kg po” value [3] is reported as 7.0 days. The “Activity (%) 10 mg/kg po” value [3] was 11%, the “Survival (days) 10 mg/kg SSV po” value [3] was 7.7 days and the “Activity (%) 10 mg/kg SSV po” value [3] was 18%. The “Survival (days) 10 mg/kg sc” value [3] was 7.0 days and the “Activity (%) 10 mg/kg sc” value [3] was 24%.
For `CS(=O)(=O)c1ccc([C@H]2CC[C@]3(CC2)OOC2(O3)C3CC4CC(C3)CC2C4)cc1` (stereo partly drawn) [OZ178], the IC50 [1] was 21 ng/mL (≈ 0.0502 µM), the IC50 [2] was 27 ng/mL (≈ 0.0645 µM) and the “Survival (days) 10 mg/kg po” value [3] was 7.3 days. The “Activity (%) 10 mg/kg po” value [3] was 32%, the “Survival (days) 10 mg/kg SSV po” value [3] was 7.3 days and the “Activity (%) 10 mg/kg SSV po” value [3] was 23%. For the same compound, the “Survival (days) 10 mg/kg sc” value [3] was 10.0 days and the “Activity (%) 10 mg/kg sc” value [3] was 31%.
With `CC1(C)COC(c2ccc([C@H]3CC[C@]4(CC3)OOC3(O4)C4CC5CC(C4)CC3C5)cc2)=N1` (stereo partly drawn) [OZ180] the “IC50 (ng/ml) K1” value ([1]; chloroquine-resistant K1 strain, 72 h incubation, hydrochloride) was 3.7 ng/mL (≈ 0.00846 µM), the “IC50 (ng/ml) NF54” value ([2]; chloroquine-sensitive NF54 strain, 72 h incubation, hydrochloride) was 2.8 ng/mL (≈ 0.0064 µM) and the “Survival (days) 10 mg/kg po” value ([3]; hydrochloride, 10 mg/kg) was 13.7 days. For the same compound, the “Activity (%) 10 mg/kg po” value ([3]; hydrochloride, 10 mg/kg) was 99.91%, the “Survival (days) 10 mg/kg SSV po” value ([3]; hydrochloride, 10 mg/kg) was 12.7 days and the “Activity (%) 10 mg/kg SSV po” value ([3]; hydrochloride, 10 mg/kg) was 97%. For the same compound, the “Survival (days) 10 mg/kg sc” value ([3]; hydrochloride, 10 mg/kg) was 10.3 days and the “Activity (%) 10 mg/kg sc” value ([3]; hydrochloride, 10 mg/kg) was 65%.
With `O=C(OCCn1ccnc1)C1CCC2(CC1)OOC1(O2)C2CC3CC(C2)CC1C3` (stereo not drawn) [OZ182] the IC50 [1] was 4.5 ng/mL (≈ 0.0112 µM), the IC50 [2] was 5.5 ng/mL (≈ 0.0137 µM) and the “Survival (days) 10 mg/kg po” value [3] was 8.0 days. The “Activity (%) 10 mg/kg po” value [3] was 91%, the “Survival (days) 10 mg/kg SSV po” value [3] was 7.3 days and the “Activity (%) 10 mg/kg SSV po” value [3] was 96%. The “Survival (days) 10 mg/kg sc” value [3] was 7.7 days and the “Activity (%) 10 mg/kg sc” value [3] was 95%.
